# Test results taken from ChEMBL document CHEMBL1201862, “PubChem BioAssay data set” (2004).
#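 How tested: cells in 96-well plates exposed to compound for 48 hours at five concentrations. GI50 = concentration required for 50% inhibition of growth.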 Activity calls are given as the source filed them. Rule as the data show it: active = GI50 up to about 1.1 µM and inactive = higher.
# Assays:
# Assay in all cases: NCI anticancer screen, dose series, 48 h
# OVCAR-8 = test system: OVCAR-8
# OVCAR-3 = test system: OVCAR-3
# SK-OV-3 = test system: SK-OV-3
# NCI-H460 = test system: NCI-H460
# ACHN = test system: ACHN
# RXF 393 = test system: RXF 393
# DMS-273 = test system: DMS-273
# NCI-H522 = test system: NCI-H522
# SW-620 = test system: SW-620
# UACC-257 = test system: UACC-257
# U-251 = test system: U-251
# SK-MEL-5 = test system: SK-MEL-5
# HCT-15 = test system: HCT-15
# KM-20L2 = test system: KM-20L2
# SNB-78 = test system: SNB-78
# HL-60 = test system: HL-60
# SR = test system: SR
# M14 = test system: M14
# IGROV-1 = test system: IGROV-1
# A549 = test system: A549
# SN12C = test system: SN12C
# CAKI-1 = test system: CAKI-1
# LOX IMVI = test system: LOX IMVI
# OVCAR-5 = test system: OVCAR-5
# 786-0 = test system: 786-0
# NCI-H226 = test system: NCI-H226
# K562 = test system: K562
# OVCAR-4 = test system: OVCAR-4
# M19-MEL = test system: M19-MEL
# SF-295 = test system: SF-295
# HOP-62 = test system: HOP-62
# HCT-116 = test system: HCT-116
# UACC-62 = test system: UACC-62
# SNB-75 = test system: SNB-75
# SK-MEL-2 = test system: SK-MEL-2
# COLO 205 = test system: COLO 205
# CCRF-CEM = test system: CCRF-CEM
# Malme-3M = test system: Malme-3M
# HOP-18 = test system: HOP-18
# HCC 2998 = test system: HCC 2998
# TK-10 = test system: TK-10
# EKVX = test system: EKVX
# UO-31 = test system: UO-31
# DLD-1 = test system: DLD-1
# RPMI-8226 = test system: RPMI-8226
# SF-268 = test system: SF-268
# A498 = test system: A498
# KM12 = test system: KM12
# LXFL 529 = test system: LXFL 529
# SK-MEL-28 = test system: SK-MEL-28
# DMS-114 = test system: DMS-114
# NCI-H23 = test system: NCI-H23
# HOP-92 = test system: HOP-92
# SNB-19 = test system: SNB-19
# MOLT-4 = test system: MOLT-4
# SF-539 = test system: SF-539
# HT-29 = test system: HT-29
structure (smiles),measurement,setting,value
COc1cc(OC)c2c(=O)c3c([N+](=O)[O-])cccc3n(C)c2c1,GI50,OVCAR-8,> 100 µM (inactive)
same,GI50,OVCAR-3,> 100 µM (inactive)
same,GI50,SK-OV-3,> 100 µM (inactive)
same,GI50,NCI-H460,> 100 µM (inactive)
same,GI50,ACHN,> 100 µM (inactive)
same,GI50,RXF 393,> 100 µM (inactive)
same,GI50,DMS-273,> 100 µM (inactive)
same,GI50,NCI-H522,> 100 µM (inactive)
same,GI50,SW-620,> 100 µM (inactive)
same,GI50,UACC-257,> 100 µM (inactive)
same,GI50,U-251,94.8 µM (inactive)
same,GI50,SK-MEL-5,> 100 µM (inactive)
same,GI50,HCT-15,> 100 µM
same,GI50,KM-20L2,> 100 µM (inactive)
same,GI50,SNB-78,> 100 µM (inactive)
same,GI50,HL-60,> 100 µM (inactive)
same,GI50,SR,> 100 µM (inactive)
same,GI50,M14,> 100 µM (inactive)
same,GI50,IGROV-1,> 100 µM (inactive)
same,GI50,A549,> 100 µM (inactive)
same,GI50,SN12C,> 100 µM (inactive)
same,GI50,CAKI-1,> 100 µM (inactive)
same,GI50,LOX IMVI,> 100 µM (inactive)
same,GI50,OVCAR-5,> 100 µM (inactive)
same,GI50,786-0,> 100 µM (inactive)
same,GI50,NCI-H226,> 100 µM (inactive)
same,GI50,K562,> 100 µM (inactive)
same,GI50,OVCAR-4,> 100 µM (inactive)
same,GI50,M19-MEL,> 100 µM (inactive)
same,GI50,SF-295,> 100 µM (inactive)
same,GI50,HOP-62,> 100 µM (inactive)
same,GI50,HCT-116,> 100 µM (inactive)
same,GI50,UACC-62,> 100 µM (inactive)
same,GI50,SNB-75,> 100 µM (inactive)
same,GI50,SK-MEL-2,> 100 µM (inactive)
same,GI50,COLO 205,> 100 µM (inactive)
same,GI50,CCRF-CEM,> 100 µM (inactive)
same,GI50,Malme-3M,> 100 µM (inactive)
same,GI50,HOP-18,> 100 µM (inactive)
same,GI50,HCC 2998,> 100 µM (inactive)
same,GI50,TK-10,> 100 µM (inactive)
same,GI50,EKVX,> 100 µM (inactive)
same,GI50,UO-31,> 100 µM (inactive)
same,GI50,DLD-1,> 100 µM (inactive)
same,GI50,RPMI-8226,> 100 µM (inactive)
same,GI50,SF-268,> 100 µM (inactive)
same,GI50,A498,> 100 µM (inactive)
same,GI50,KM12,> 100 µM (inactive)
same,GI50,LXFL 529,> 100 µM (inactive)
same,GI50,SK-MEL-28,> 100 µM (inactive)
same,GI50,DMS-114,> 100 µM (inactive)
same,GI50,NCI-H23,> 100 µM (inactive)
same,GI50,HOP-92,> 100 µM (inactive)
same,GI50,SNB-19,> 100 µM (inactive)
same,GI50,MOLT-4,> 100 µM (inactive)
same,GI50,SF-539,> 100 µM (inactive)
same,GI50,HT-29,> 100 µM (inactive)
